Laboratory results published in publication PMC8899474, “Discovery and Characterization of the Key Constituents in Ginkgo biloba Leaf Extract With Potent Inhibitory Effects on Human UDP-Glucuronosyltransferase 1A1” (Frontiers in Pharmacology, 2022).

Legend:
hUGT1A1 [1] = molecular target: T1, hUGT1A1 (Homo sapiens, UniProt P22309); assay: UGT1A1 inhibition assay and inhibition kinetics in human liver microsomes (NHPN-O-glucuronidation); assay type: biochemical; details: NHPN-O-glucuronidation in HLM
T1 sequence (P22309 26-533): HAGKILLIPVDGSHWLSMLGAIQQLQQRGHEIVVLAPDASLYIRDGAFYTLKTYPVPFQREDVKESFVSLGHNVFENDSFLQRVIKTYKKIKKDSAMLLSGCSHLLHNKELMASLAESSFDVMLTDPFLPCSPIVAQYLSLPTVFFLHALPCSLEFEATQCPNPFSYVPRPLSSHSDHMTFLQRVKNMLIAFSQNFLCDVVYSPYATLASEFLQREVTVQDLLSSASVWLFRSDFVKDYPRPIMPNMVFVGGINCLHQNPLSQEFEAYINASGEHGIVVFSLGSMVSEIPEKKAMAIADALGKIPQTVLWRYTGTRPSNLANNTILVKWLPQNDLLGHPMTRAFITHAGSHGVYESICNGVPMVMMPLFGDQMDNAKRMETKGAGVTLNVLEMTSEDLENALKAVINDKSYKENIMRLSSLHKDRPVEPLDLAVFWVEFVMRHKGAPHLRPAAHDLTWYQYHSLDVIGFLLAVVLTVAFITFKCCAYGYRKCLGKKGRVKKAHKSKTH

hUGT1A1 [2] = molecular target: T1, hUGT1A1; assay: UGT1A1 inhibition assay in living HeLa-UGT1A1 cells (NHPN-O-glucuronidation, LC-FD); assay type: cell-based; parameters: expressed in transfected cells; host or cells: HeLa cells, stably transduced with lentivirus (HeLa-UGT1A1); details: for inhibition of intracellular hUGT1A1: high concentration (100 μM), HeLa-UGT1A1 cells
Procedure: A RF-20A FD detector coupled UFLC system (Shimadzu, Kyoto, Japan), equipped with a DGU-20A5R vacuum degasser, two LC-20ADXR pumps, a SIL-20ACXR autosampler and a CTO-20A column oven, was used to quantify NHPN and NHPNG. Chromatographic separation of analytes was carried out on a shim-pack Acchrom HC-C18 analytical column (2.0 × 150 mm, 4.6 μm particle size), while the column temperature was kept at 40°C. The flow rate was kept at 0.5 ml/min. The mobile phase consisted of acetonitrile (A) and water containing 0.2% formic acid (B). The gradient of the mobile phase was as follows: 0–0.5 min, 80–60% B; 0.5–3.5 min, 60–5% B; 3.5–5 min, 5% B; 5–7.5 min, equilibration with 80% B. The excitation wavelength and the emission wavelength were set at 370 and 520 nm, respectively for detection.
The inhibitory effects of herbal products and chemical constituents of GBL extract on UGT1A1 were investigated in living HeLa-UGT1A1 cells by using a specific fluorescent substrate, NHPN, as a probe. HeLa-UGT1A1 cells were cultured at 37°C in 5% CO2 in Modified Eagle’s Medium (MEM) containing 0.1% antibiotic-antimycoticmix, supplemented with 10% fetal bovine serum (FBS). HeLa-UGT1A1 cells were seeded in 96-well plates and cultured for 24 h. The cells were incubated in the medium containing different kinds of herbal products (final concentration, 10 μg/ml) or chemical constituents of GBL extract (diluted to different concentration by DMSO with the final concentration of 1% DMSO in each incubation) for 60 min at 37°C under 5% CO2, and co-incubated with NHPN (final concentration, 50 μM) for another 60 min. […] The validation data for this cell-based flourescence assay can be found in our previous publication ([Zhu et al., 2020]).

hUGT1A1 [3] = molecular target: T1, hUGT1A1; assay: UGT1A1 inhibition assay with recombinant UGT1A1 (NHPN-O-glucuronidation)
Procedure: NHPN was used for evaluating the inhibitory effects of GBL extract on HLM. A typical incubation mixture with a total volume of 200 μl consisted of 50 mM Tris-HCl (pH = 7.4), 5 mM MgCl2, 2 mM UDPGA, NHPN (diluted by DMSO, 5 μM) and the enzymes. […] The final concentration of DMSO in the incubation mixture was less than 1%. […] A concentration of 5 μg/ml was used when recombinant UGT1A1 was the enzyme source. After pre-incubation for 3 min at 37°C, UDPGA was added to the incubation mixture to initiate the reaction. After 60 min incubation at 37°C, the reaction was terminated by adding 200 μl ice-cold acetonitrile, and the incubation mixture was kept on ice. After centrifugation at 20,000×g for 20 min at 4°C, 5 μl aliquots of the supernatant was taken for LC-FD analysis.
The residual activity of hUGT1A1 was determined as follows: Residual activity (%) = (the fluorescence intensity of NHPNG generated in the incubations with inhibitor)/(the fluorescence intensity of NHPNG generated in the incubations without inhibitor) × 100%. A set of incubations with the same fluorescent substrate concentration and different inhibitor concentrations were performed to determine the half maximal inhibition concentration (IC50).

hUGT1A1 [4] = molecular target: T1, hUGT1A1; assay: UGT1A1 inhibition assay and inhibition kinetics in human liver microsomes (NHPN-O-glucuronidation); assay type: biochemical; details: NHPN-O-glucuronidation in HLM; for Ki: second plot of Lineweaver-Burk slopes
Procedure: A set of incubations by changing both the fluorescent substrate concentration and the inhibitor concentration were performed to determine the inhibition kinetic modes and the corresponding inhibition constant (K i ) values. The incubation and analytical sample preparation were conducted as described previously. Goodness-of-fit parameter and Akaike’s Information Criterion (AIC) were employed to select the most appropriate inhibition kinetic modes from the following three inhibition modes including competitive inhibition Eq. 1, noncompetitive inhibition Eq. 2, or mixed inhibition Eq. 3, V=Vmax×[S]/Km×(1+[I]/Ki)+[S] (1) V=Vmax×[S]/(Km+[S])×(1+[I]/Ki) (2) V=Vmax×[S]/Km×(1+[I]/Ki)+[S]×(1+[I]/αKi) (3)
Here, V is the turnover of the glucuronidation reaction; V max is the maximum velocity; S and I are the substrate and inhibitor concentrations, respectively; K m is the Michaelis constant (substrate concentration at 0.5 V max ); K i is the inhibition constant that describes the affinity of the inhibitor towards hUGT1A1. The corresponding K i value of each tested inhibitor is calculated by utilizing the slopes of second plot from Lineweaver-Burk plot versus inhibitor concentrations.

[5] = hUGT1A1-catalyzed NHPN-O-glucuronidation in HeLa-UGT1A1 cells, read-out: IC50

| Molecule | IC50 (hUGT1A1 [1]) | IC50 (hUGT1A1 [2]; [5]) | further results |
| --- | --- | --- | --- |
| O=c1cc(-c2ccc(O)c(-c3c(O)cc(O)c4c(=O)cc(-c5ccc(O)cc5)oc34)c2)oc2cc(O)cc(O)c12 [Amentoflavone] | 410 ± 34 nM | 3290 ± 470 nM |  |
| O=c1cc(-c2ccc(O)cc2)oc2cc(O)cc(O)c12 [Apigenin] |  | 1890 ± 240 nM |  |
| CC(C)(C)[C@]1(O)CC2OC(=O)CC23C(=O)OC2OC(=O)[C@H](O)C231 (stereo partly shown) [Bilobalide] |  |  | IC50 (hUGT1A1 [2]): > 100000 nM; inhibition of intracellular hUGT1A1 (hUGT1A1 [2]): did not inhibit |
| COc1ccc(-c2cc(=O)c3c(O)cc(O)cc3o2)cc1-c1c(O)cc(O)c2c(=O)cc(-c3ccc(O)cc3)oc12 [Bilobetin] | 200 ± 23 nM | 410 ± 48 nM | IC50 (hUGT1A1 [3]): 100 to 290 nM; Inhibition mode (hUGT1A1 [4]): Mixed; Ki (hUGT1A1 [4]): 180 nM |
| COc1cc(O)c2c(=O)cc(-c3ccc(O)cc3)oc2c1 [Genkwanin] |  | 1500 ± 460 nM |  |
| COc1cc(O)c2c(=O)cc(-c3ccc(OC)c(-c4c(O)cc(O)c5c(=O)cc(-c6ccc(O)cc6)oc45)c3)oc2c1 [Ginkgetin] | 150 ± 14 nM | 75 ± 9 nM | IC50 (hUGT1A1 [3]): 100 to 290 nM; Inhibition mode (hUGT1A1 [4]): Mixed; Ki (hUGT1A1 [4]): 70 nM |
| C[C@@H]1C(=O)O[C@H]2C[C@@]34[C@H]5C[C@@H](C(C)(C)C)[C@]36[C@@H](OC(=O)[C@@H]6O)O[C@@]4(C(=O)O5)[C@]21O [Ginkgolide A] |  | > 100000 nM | inhibition of intracellular hUGT1A1 (hUGT1A1 [2]): did not inhibit |
| COc1ccc(-c2cc(=O)c3c(O)cc(O)c(-c4cc(-c5cc(=O)c6c(O)cc(O)cc6o5)ccc4OC)c3o2)cc1 [Isoginkgetin] | 670 ± 85 nM | 160 ± 20 nM | IC50 (hUGT1A1 [3]): 100 to 290 nM; Inhibition mode (hUGT1A1 [4]): Mixed; Ki (hUGT1A1 [4]): 740 nM |
| O=c1c(O)c(-c2ccc(O)cc2)oc2cc(O)cc(O)c12 [Kaempferol] |  | 1380 ± 190 nM |  |
| COc1cc(-c2oc3cc(O)cc(O)c3c(=O)c2O)ccc1O [Lsorhamnetin, isorhamnetin] |  | 1680 ± 340 nM |  |
| O=c1cc(-c2ccc(O)c(O)c2)oc2cc(O)cc(O)c12 [Luteolin] |  | 1410 ± 170 nM |  |
| O=c1c(O)c(-c2cc(O)c(O)c(O)c2)oc2cc(O)cc(O)c12 [Myricetin] |  | 64600 ± 12200 nM |  |
| O=c1c(O)c(-c2ccc(O)c(O)c2)oc2cc(O)cc(O)c12 [Quercetin] |  | 2050 ± 240 nM |  |
| COc1ccc(-c2cc(=O)c3c(O)cc(O)c(-c4cc(-c5cc(=O)c6c(O)cc(OC)cc6o5)ccc4OC)c3o2)cc1 [Sciadopitysin] | 280 ± 36 nM | 110 ± 9 nM | Inhibition mode (hUGT1A1 [4]): Mixed; Ki (hUGT1A1 [4]): 670 nM |
| Ginkgolide B |  |  | inhibition of intracellular hUGT1A1 (hUGT1A1 [2]): did not inhibit |
| Ginkgolide C |  |  | inhibition of intracellular hUGT1A1 (hUGT1A1 [2]): did not inhibit |
